Data published in ChEMBL document CHEMBL5154776, “Discovery of Potent and Orally Bioavailable Platelet-Derived Growth Factor Receptor (PDGFR) Inhibitors for the Treatment of Osteosarcoma” (J Med Chem, 2022).
Activity calls are given as the source filed them. No cut-off for these calls is given here.

Assays:
HOS-TE85 [1] = assay: Antitumor activity against human MNNG/HOS cells xenografted in BALB/c nude mouse assessed as reduction in tumor growth at 15 to 30 mg/kg/day, po dosed for 14 days; format: functional, organism-based; details: dose lower […], dose upper 30.0 mg/kg/day, time 14.0 day
[2] = target: T1, Platelet-derived growth factor receptor beta (Homo sapiens, UniProt P09619); assay: Inhibition of PDGFRbeta phosphorylation in human MNNG/HOS cells incubated for 48 hrs by Western blot analysis; format: cell-based
HOS-TE85 [3] = assay: Inhibition of colony formation in human MNNG/HOS cells by crystal violet staining based analysis; format: functional, cell-based; details: dose 0.1-0.4 µM, DDE = dose-dependent effect
HOS-TE85 [4] = assay: Induction of cell cycle arrest in human MNNG/HOS cells assessed as accumulation of cells at G2/M phase incubated for 48 hrs by propidium iodide staining based flow cytometry analysis; format: functional; details: dose 0.1-0.4 µM, DDE = dose-dependent effect
MG-63 [5] = assay: Induction of cell cycle arrest in human MG-63 cells assessed as accumulation of cells at G0/G1 phase incubated for 48 hrs by propidium iodide staining based flow cytometry analysis; format: functional; details: dose 0.1-0.4 µM, DDE = dose-dependent effect
HOS-TE85 [6] = assay: Inhibition of alpha tubulin expression in human MNNG/HOS cells assessed as effect on microtubule network at 0.1 to 0.4 uM by DAPI staining based immunofluorescence microscopic analysis; format: functional, cell-based; details: dose 0.1-0.4 µM
MG-63 [7] = assay: Inhibition of alpha tubulin expression in human MG-63 cells assessed as effect on microtubule network at 0.1 to 0.4 uM by DAPI staining based immunofluorescence microscopic analysis; format: functional, cell-based; details: dose 0.1-0.4 µM
HOS-TE85 [8] = assay: Induction of apoptosis in human MNNG/HOS cells at 0.4 uM after 48 hrs by Annexin V/PI staining based flow cytometric analysis; format: functional, cell-based
MG-63 [9] = assay: Induction of apoptosis in human MG-63 cells at 0.4 uM after 48 hrs by Annexin V/PI staining based flow cytometric analysis; format: functional, cell-based
HOS-TE85 [10] = assay: Inhibition of PDGF AA/BB-stimulated human MNNG/HOS cell proliferation measured after 48 hrs by MTT assay; format: functional, cell-based; details: dose 0.1-1.6 µM, DDE = dose-dependent effect
MG-63 [11] = assay: Inhibition of PDGF AA/BB-stimulated human MG-63 cell proliferation measured after 48 hrs by MTT assay; format: functional, cell-based; details: dose 0.1-1.6 µM, DDE = dose-dependent effect
HOS-TE85 [12] = assay: Induction of DNA damage in human MNNG/HOS cells assessed as tail DNA at 0.1 to 0.4 uM measured after 48 hrs by comet assay; format: functional, cell-based; details: dose 0.1-0.4 µM
MG-63 [13] = assay: Induction of DNA damage in human MG-63 cells assessed as tail DNA at 0.1 to 0.4 uM measured after 48 hrs by comet assay; format: functional, cell-based; details: dose 0.1-0.4 µM
[14] = target: T1, Platelet-derived growth factor receptor beta; assay: Inhibition of PDGFRbeta-mediated downstream signalling in human MG-63 cells assessed as suppression of STAT3 phosphorylation at 0.1 uM measured after 48 hrs by western blot analysis; format: cell-based
[15] = target: T1, Platelet-derived growth factor receptor beta; assay: Inhibition of PDGFRbeta-mediated downstream signalling in human MG-63 cells assessed as suppression of ERK phosphorylation at 0.1 uM measured after 48 hrs by western blot analysis; format: cell-based
[16] = target: T1, Platelet-derived growth factor receptor beta; assay: Inhibition of PDGFRbeta-mediated downstream signalling in human MG-63 cells assessed as suppression of AKT phosphorylation at 0.1 uM measured after 48 hrs by western blot analysis; format: cell-based
[17] = target: T1, Platelet-derived growth factor receptor beta; assay: Inhibition of PDGFRbeta-mediated downstream signalling in human MNNG/HOS cells assessed as suppression of ERK phosphorylation at 0.1 to 0.4 uM measured after 48 hrs by western blot analysis; format: cell-based; details: dose 0.1-0.4 µM
MG-63 [18] = assay: Inhibition of cell migration in human MG-63 cells assessed as reduction of cell mobility after 48 hrs by scratch-wound healing assay; format: functional, cell-based; details: dose 0.1-0.4 µM, DDE = dose-dependent effect
HOS-TE85 [19] = assay: Inhibition of cell adhesion in human MNNG/HOS cells at 0.1 to 0.4 uM measured after 48 hrs by crystal violet staining based analysis; format: functional; details: dose 0.1-0.4 µM
MG-63 [20] = assay: Inhibition of cell adhesion in human MG-63 cells at 0.1 to 0.4 uM measured after 48 hrs by crystal violet staining based analysis; format: functional; details: dose 0.1-0.4 µM
MG-63 [21] = assay: Inhibition of cell invasion in human MG-63 cells at 0.1 to 0.4 uM measured after 48 hrs by crystal violet staining based transwell assay; format: functional; details: dose 0.1-0.4 µM
HOS-TE85 [22] = assay: Inhibition of cell migration in human MNNG/HOS cells at 0.1 to 0.4 uM measured for 48 hrs scratch wound healing migration assay; format: functional, cell-based; details: dose 0.1-0.4 µM
MG-63 [23] = assay: Inhibition of cell migration in human MG-63 cells at 0.1 to 0.4 uM measured for 48 hrs scratch wound healing migration assay; format: functional, cell-based; details: dose 0.1-0.4 µM
HOS-TE85 [24] = assay: Inhibition of alpha tubulin expression in human MNNG/HOS cells at 0.1 to 0.4 uM measured after 48 hrs by western blot analysis; format: functional, cell-based; details: dose 0.1-0.4 µM
HOS-TE85 [25] = assay: Antimigratory activity against human MNNG/HOS cells assessed as expression of FAK by measuring fluorescence at 0.1 to 0.4 uM upto 48 hrs by DAPI staining based immunofluorescence microscopic analysis; format: functional, cell-based; details: dose 0.1-0.4 µM
MG-63 [26] = assay: Antimigratory activity against human MG-63 cells assessed as expression of FAK by measuring fluorescence at 0.1 to 0.4 uM upto 48 hrs by DAPI staining based immunofluorescence microscopic analysis; format: functional, cell-based; details: dose 0.1-0.4 µM
HOS-TE85 [27] = assay: Antiinvasive activity against human MNNG/HOS cells assessed as reduction in cell spreading area upto 48 hrs by DAPI staining based immunofluorescence microscopic analysis; format: functional; details: dose 0.1-0.4 µM, DDE = dose-dependent effect
HOS-TE85 [28] = assay: Antimigratory activity against human MNNG/HOS cells assessed as reduction in cell spreading area upto 48 hrs by DAPI staining based immunofluorescence microscopic analysis; format: functional; details: dose 0.1-0.4 µM, DDE = dose-dependent effect
MG-63 [29] = assay: Antiinvasive activity against human MG-63 cells assessed as reduction in cell spreading area upto 48 hrs by DAPI staining based immunofluorescence microscopic analysis; format: functional; details: dose 0.1-0.4 µM, DDE = dose-dependent effect
MG-63 [30] = assay: Inhibition of FAK expression in human MG-63 cells incubated for 48 hrs by Western blot analysis; format: functional, cell-based; details: dose 0.1-0.4 µM, DDE = dose-dependent effect
[31] = target: Focal adhesion kinase 1 (Homo sapiens) (UniProt Q05397); assay: Inhibition of FAK phosphorylation in human MNNG/HOS cells incubated for 48 hrs by Western blot analysis; format: cell-based; details: dose 0.1-0.4 µM, DDE = dose-dependent effect
[32] = target: Focal adhesion kinase 1 (Homo sapiens) (UniProt Q05397); assay: Inhibition of FAK phosphorylation in human MG-63 cells incubated for 48 hrs by Western blot analysis; format: cell-based; details: dose 0.1-0.4 µM, DDE = dose-dependent effect
[33] = target: T1, Platelet-derived growth factor receptor beta; assay: Binding affinity to PDGFRbeta (unknown origin)
[34] = target: Platelet-derived growth factor receptor alpha (Homo sapiens, UniProt P16234); assay: Binding affinity to PDGFRalpha (unknown origin)
MG-63 [35] = assay: Inhibition of PDGFRbeta expression in human MG-63 cells incubated for 48 hrs by Western blot analysis; format: functional, cell-based
HOS-TE85 [36] = assay: In vivo inhibition of PDGFRbeta-mediated downstream signalling in human MNNG/HOS cells xenografted in BALB/c nude mouse assessed as phosphorylation of ERK in tumor tissue at 15 to 30 mg/kg/day, po for 14 days; format: functional, organism-based; details: dose lower […], dose upper 30.0 mg/kg/day, time 14.0 day
HOS-TE85 [37] = assay: In vivo inhibition of PDGFRbeta-mediated downstream signalling in human MNNG/HOS cells xenografted in BALB/c nude mouse assessed as phosphorylation of AKT in tumor tissue at 15 to 30 mg/kg/day, po for 14 days; format: functional, organism-based; details: dose lower […], dose upper 30.0 mg/kg/day, time 14.0 day
HOS-TE85 [38] = assay: Inhibition of colony formation in human MNNG/HOS cells at 0.2 uM by crystal violet staining based analysis; format: functional, cell-based
[39] = target: T1, Platelet-derived growth factor receptor beta; assay: Inhibition of PDGFRbeta in PDGF AA/BB stimulated human MNNG/HOS cells assessed as reduction in fluorescence intensity measured after 48 hrs by DAPI staining based immunofluorescence analysis; format: cell-based; details: dose 0.1-0.4 µM, DDE = dose-dependent effect

T1 sequence (P09619 whole entry): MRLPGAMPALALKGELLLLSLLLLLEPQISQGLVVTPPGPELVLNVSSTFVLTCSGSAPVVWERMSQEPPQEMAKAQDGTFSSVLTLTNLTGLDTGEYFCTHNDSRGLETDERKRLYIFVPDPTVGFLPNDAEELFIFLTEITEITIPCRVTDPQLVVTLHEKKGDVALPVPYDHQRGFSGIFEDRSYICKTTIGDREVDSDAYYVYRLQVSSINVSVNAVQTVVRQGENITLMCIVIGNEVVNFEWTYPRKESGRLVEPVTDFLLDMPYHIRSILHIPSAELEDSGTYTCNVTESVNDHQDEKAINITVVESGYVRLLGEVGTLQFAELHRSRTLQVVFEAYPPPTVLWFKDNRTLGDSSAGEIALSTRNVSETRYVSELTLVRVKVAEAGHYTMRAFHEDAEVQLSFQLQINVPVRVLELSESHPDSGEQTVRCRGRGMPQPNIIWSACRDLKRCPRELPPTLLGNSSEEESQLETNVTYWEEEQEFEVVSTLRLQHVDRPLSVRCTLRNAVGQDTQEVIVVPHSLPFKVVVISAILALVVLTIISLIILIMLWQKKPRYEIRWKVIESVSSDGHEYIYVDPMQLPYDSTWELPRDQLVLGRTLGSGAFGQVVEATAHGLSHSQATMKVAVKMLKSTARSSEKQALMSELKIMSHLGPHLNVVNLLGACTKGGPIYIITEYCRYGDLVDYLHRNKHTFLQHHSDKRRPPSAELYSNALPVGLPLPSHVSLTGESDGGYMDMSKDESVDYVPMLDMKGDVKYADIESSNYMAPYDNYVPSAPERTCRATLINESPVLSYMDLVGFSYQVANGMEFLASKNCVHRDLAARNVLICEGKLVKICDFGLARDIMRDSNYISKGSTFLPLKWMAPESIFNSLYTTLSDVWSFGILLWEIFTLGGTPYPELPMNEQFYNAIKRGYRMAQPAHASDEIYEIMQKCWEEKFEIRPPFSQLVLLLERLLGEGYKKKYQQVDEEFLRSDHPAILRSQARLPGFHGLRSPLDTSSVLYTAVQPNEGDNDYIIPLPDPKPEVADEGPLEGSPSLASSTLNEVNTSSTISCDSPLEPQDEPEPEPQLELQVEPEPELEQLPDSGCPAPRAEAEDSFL
Focal adhesion kinase 1 (Homo sapiens), sequence (Q05397 2-1052 limits assumed): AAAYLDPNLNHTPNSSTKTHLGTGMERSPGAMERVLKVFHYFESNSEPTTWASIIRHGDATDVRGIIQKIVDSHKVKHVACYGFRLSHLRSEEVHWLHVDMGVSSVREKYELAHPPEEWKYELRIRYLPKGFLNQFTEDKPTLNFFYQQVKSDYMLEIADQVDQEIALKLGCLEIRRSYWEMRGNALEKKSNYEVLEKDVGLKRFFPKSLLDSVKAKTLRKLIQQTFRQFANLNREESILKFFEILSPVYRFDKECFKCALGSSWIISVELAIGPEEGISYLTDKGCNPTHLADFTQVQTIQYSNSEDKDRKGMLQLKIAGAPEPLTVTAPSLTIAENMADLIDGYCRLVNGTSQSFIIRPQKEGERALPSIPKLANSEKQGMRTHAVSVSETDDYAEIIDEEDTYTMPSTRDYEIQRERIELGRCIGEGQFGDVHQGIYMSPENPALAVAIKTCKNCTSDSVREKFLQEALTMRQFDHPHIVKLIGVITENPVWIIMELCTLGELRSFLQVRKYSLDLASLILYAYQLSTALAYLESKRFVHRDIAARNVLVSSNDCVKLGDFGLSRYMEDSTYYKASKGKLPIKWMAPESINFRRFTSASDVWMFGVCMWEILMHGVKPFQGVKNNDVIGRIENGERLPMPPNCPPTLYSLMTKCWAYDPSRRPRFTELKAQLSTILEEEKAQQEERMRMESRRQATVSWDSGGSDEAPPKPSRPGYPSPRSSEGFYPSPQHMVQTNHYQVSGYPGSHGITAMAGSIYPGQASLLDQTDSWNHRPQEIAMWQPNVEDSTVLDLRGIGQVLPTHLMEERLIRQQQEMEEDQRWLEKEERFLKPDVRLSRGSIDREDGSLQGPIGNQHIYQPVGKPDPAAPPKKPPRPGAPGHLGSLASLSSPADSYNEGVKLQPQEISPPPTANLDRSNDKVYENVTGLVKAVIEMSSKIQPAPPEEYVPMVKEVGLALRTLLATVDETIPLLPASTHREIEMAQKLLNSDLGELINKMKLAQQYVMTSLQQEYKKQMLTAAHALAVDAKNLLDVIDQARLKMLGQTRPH
Platelet-derived growth factor receptor alpha, sequence (P16234 whole entry): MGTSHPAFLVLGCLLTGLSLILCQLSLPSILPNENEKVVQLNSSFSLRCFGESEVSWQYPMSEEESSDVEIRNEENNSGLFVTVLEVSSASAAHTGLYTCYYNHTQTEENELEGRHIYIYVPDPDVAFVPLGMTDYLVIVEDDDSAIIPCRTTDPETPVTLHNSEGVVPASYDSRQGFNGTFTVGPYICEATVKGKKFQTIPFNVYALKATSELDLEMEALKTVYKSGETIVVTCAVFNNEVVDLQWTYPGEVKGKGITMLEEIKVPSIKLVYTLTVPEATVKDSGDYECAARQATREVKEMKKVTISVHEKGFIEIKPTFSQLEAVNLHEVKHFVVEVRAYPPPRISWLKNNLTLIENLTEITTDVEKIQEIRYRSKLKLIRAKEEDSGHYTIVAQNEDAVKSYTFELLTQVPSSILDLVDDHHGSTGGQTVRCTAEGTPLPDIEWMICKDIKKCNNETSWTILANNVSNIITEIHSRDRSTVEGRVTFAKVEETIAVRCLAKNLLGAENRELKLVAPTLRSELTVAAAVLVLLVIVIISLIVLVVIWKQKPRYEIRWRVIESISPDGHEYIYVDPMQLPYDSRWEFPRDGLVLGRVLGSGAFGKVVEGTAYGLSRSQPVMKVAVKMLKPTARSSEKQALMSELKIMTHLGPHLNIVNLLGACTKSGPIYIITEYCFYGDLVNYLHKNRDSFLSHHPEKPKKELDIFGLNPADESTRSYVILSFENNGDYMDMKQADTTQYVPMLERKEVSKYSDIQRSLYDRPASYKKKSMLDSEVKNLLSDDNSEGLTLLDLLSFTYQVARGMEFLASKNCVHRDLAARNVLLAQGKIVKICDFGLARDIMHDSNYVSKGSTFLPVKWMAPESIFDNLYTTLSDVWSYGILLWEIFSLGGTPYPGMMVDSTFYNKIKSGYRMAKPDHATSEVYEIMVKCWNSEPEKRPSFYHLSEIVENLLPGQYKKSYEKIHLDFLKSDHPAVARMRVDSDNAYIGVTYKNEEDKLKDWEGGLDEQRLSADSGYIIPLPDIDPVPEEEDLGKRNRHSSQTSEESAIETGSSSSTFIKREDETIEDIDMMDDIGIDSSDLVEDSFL

inhibition [2]: Active
inhibition [14]: Active
inhibition [15]: Active
inhibition [16]: Active
inhibition [17]: Active
inhibition [31]: Dde
inhibition [32]: Dde
Activity [33]: Active
Activity [34]: Active
inhibition [39]: Dde
SMILES: CCN1CCN(c2ccc(Nc3ncc(C)c(Nc4ccc5cn[nH]c5c4)n3)cc2OC)CC1
Activity (HOS-TE85 [1]): Active
inhibition (HOS-TE85 [3]): Dde
Activity (HOS-TE85 [4]): Dde
Activity (MG-63 [5]): Dde
inhibition (HOS-TE85 [6]): Active
inhibition (MG-63 [7]): Active
Activity (HOS-TE85 [8]): Active
Activity (MG-63 [9]): Active
inhibition (HOS-TE85 [10]): Dde
inhibition (MG-63 [11]): Dde
Activity (HOS-TE85 [12]): Active
Activity (MG-63 [13]): Active
inhibition (MG-63 [18]): Dde
inhibition (HOS-TE85 [19]): Active
inhibition (MG-63 [20]): Active
inhibition (MG-63 [21]): Active
inhibition (HOS-TE85 [22]): Active
inhibition (MG-63 [23]): Active
inhibition (HOS-TE85 [24]): Active
Activity (HOS-TE85 [25]): Active
Activity (MG-63 [26]): Active
Activity (HOS-TE85 [27]): Dde
Activity (HOS-TE85 [28]): Dde
Activity (MG-63 [29]): Dde
inhibition (MG-63 [30]): Dde
inhibition (MG-63 [35]): Active
inhibition (HOS-TE85 [36]): Active
inhibition (HOS-TE85 [37]): Active
inhibition (HOS-TE85 [38]): Active
